Literature values as cited in publication PMC8557155 (Annals of Nuclear Medicine, 2021).

Conditions: rat model, lysine-protected rats; cited from earlier work

SMILES: NCCCC[C@H](N)C(=O)O [lysine]
- Reduction of 177Lu quantified in the kidney: approximately 45%
